Structures can show the parent of a compound that is named as a salt. Some results are limits rather than exact numbers.

The source of these data is ChEMBL document CHEMBL4118154, “Discovery of evocalcet, a next-generation calcium-sensing receptor agonist for the treatment of hyperparathyroidism” (Bioorg Med Chem Lett, 2018).

In one series the target is Cytochrome P450 2D6 (Homo sapiens, UniProt P10635). Briefly: Inhibition of recombinant human CYP2D6 expressed in bacterial membranes using AMMC as substrate preincubated for 10 mins followed by NADPH addition measured after 30 mins by fluorescence assay. The format is ADME, cell membranes.
Sequence of Cytochrome P450 2D6 (P10635 whole entry): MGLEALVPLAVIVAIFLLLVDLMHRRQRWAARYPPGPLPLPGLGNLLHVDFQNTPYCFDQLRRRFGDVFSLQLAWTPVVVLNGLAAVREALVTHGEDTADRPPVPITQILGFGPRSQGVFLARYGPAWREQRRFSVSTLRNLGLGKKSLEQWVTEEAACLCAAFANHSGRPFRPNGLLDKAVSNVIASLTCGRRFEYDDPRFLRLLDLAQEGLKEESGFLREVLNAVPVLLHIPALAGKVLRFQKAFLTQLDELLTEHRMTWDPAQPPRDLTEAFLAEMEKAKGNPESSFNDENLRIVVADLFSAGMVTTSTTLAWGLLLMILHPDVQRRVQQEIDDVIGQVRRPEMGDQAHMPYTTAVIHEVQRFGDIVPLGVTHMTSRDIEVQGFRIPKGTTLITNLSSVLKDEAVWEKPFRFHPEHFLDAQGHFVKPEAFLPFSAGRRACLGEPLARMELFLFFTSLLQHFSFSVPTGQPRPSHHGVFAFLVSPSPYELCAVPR
In series [1] the target is T1, Extracellular calcium-sensing receptor (Homo sapiens, UniProt P41180).
T1 sequence (P41180 whole entry): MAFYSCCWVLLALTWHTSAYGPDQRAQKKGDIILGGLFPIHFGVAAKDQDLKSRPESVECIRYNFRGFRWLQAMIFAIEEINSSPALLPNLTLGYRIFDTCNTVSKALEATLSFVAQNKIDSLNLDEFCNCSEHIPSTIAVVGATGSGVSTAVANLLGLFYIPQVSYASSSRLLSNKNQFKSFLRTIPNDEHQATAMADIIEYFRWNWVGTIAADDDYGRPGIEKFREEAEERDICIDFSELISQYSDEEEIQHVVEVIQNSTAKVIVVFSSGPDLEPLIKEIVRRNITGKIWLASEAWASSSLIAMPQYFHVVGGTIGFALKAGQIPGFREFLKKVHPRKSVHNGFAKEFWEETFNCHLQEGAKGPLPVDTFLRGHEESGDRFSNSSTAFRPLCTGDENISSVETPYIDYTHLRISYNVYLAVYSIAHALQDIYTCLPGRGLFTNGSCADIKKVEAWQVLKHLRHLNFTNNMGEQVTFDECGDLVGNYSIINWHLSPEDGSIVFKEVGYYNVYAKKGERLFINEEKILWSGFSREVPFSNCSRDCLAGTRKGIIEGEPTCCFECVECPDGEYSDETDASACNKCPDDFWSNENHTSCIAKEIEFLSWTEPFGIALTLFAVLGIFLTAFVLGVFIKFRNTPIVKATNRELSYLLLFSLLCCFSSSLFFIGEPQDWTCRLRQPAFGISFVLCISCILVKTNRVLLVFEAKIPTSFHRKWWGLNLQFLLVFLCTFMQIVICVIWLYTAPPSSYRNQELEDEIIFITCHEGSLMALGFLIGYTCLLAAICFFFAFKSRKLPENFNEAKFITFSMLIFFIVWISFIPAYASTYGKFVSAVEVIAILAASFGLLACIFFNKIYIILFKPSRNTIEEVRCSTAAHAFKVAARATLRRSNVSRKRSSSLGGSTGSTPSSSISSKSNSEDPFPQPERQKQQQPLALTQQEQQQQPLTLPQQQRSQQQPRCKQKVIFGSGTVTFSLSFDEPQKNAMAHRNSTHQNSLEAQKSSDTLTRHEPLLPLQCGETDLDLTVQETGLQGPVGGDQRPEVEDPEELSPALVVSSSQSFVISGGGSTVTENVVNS
Briefly: Agonist activity at human CaSR expressed in CHO cells assessed as increase in intracellular calcium mobilization after 1 hr by Fura-2 dye-based fluorescence assay. Type of series: functional, cell-based.

Series [2] in a line: Intrinsic clearance in rat liver microsomes assessed per protein. Type of series: ADME, microsome. The following applies: read-out: CLH. (Liver microsomes are a subcellular fraction often used to study metabolism.)
The target of series [3] is T2, Extracellular calcium-sensing receptor (Rattus norvegicus, UniProt P48442).
T2 sequence (P48442 whole entry): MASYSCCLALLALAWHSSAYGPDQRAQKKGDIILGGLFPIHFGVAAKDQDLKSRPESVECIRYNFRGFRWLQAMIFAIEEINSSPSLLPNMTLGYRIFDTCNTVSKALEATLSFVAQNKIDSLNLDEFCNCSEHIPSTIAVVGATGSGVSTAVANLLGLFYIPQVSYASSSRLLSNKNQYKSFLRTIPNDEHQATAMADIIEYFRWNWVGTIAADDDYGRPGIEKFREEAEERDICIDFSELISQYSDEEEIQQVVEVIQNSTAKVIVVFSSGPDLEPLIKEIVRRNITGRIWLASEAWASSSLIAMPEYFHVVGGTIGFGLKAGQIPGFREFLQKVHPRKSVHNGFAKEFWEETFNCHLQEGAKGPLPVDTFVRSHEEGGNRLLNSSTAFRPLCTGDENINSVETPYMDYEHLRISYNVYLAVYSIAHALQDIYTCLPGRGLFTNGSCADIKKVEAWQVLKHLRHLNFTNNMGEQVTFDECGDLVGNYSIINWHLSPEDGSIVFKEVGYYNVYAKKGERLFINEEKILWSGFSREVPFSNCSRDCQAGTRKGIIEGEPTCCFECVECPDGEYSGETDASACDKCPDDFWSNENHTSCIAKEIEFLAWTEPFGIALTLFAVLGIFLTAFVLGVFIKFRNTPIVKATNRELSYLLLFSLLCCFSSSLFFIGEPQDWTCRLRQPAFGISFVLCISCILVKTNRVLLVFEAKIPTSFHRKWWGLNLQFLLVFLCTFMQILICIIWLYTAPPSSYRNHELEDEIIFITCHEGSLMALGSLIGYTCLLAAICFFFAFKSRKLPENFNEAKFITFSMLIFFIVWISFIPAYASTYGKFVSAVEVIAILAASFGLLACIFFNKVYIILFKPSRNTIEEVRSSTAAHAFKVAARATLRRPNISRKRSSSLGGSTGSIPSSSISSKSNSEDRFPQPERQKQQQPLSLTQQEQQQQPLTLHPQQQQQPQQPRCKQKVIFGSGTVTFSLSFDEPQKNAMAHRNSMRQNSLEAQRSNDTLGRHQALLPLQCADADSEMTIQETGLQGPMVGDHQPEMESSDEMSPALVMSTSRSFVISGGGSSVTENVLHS
Briefly: Agonist activity at CaSR in rat parathyroid cells assessed as inhibition of PTH (1 to 84 residues) production in presence of Cacl2 by ELISA. The format is functional, cell-based. (In general: An ELISA detects its analyte on a solid surface through an enzyme-linked reagent.)

Series [4] concerns the target T3, CYP2D6 (Homo sapiens, UniProt P10635). Put plainly: Inhibition of CYP2D6 (unknown origin) at 0.1 uM relative to control. Type of series: ADME.
Series [5] in a line: Intrinsic clearance in human liver microsomes assessed per protein. Type of series: ADME, microsome. The following applies: read-out: CLH.
The target of series [6] is T3, CYP2D6. Put plainly: Inhibition of CYP2D6 (unknown origin) at 1 uM relative to control. Type of series: ADME.
Series [7] concerns the target T3, CYP2D6. Briefly: Inhibition of CYP2D6 (unknown origin) at 10 uM relative to control. Type of series: ADME.

T3 sequence (P10635 whole entry): as the sequence (P10635 whole entry) above

By IC50 is commonly meant the concentration needed to halve the response being measured. The term EC50 denotes the concentration at which the effect is half-maximal. Take `C[C@@H](NCCCc1cccc(C(F)(F)F)c1)c1cccc2ccccc12` [CINACALCET HYDROCHLORIDE]: the IC50 on Cytochrome P450 2D6 was below 100 nM. Moreover, in series [1], the EC50 was 180 nM.
What is called inhibition is the change of the read-out against control, counted positive when it falls. As to `C[C@@H](N[C@@H]1CCN(c2cccc(OC(F)(F)F)c2)C1)c1cccc2ccccc12`, the microsomal CLint was 270 µL/min/mg in series [2] and 206 µL/min/mg in series [5]. The IC50 in series [3] was determined as 4.3 nM. On CYP2D6 [4], the inhibition at 0.1 µM was 15.8%. In addition, the inhibition at 1 µM on CYP2D6 [6] came to 61.2%. In series [1], the EC50 came out at 320 nM.
Take `C[C@@H](N[C@@H]1CCCN(c2cccc(OC(F)(F)F)c2)C1)c1cccc2ccccc12`: the figures for the microsomal CLint in series [2] and in series [5] were 231 µL/min/mg and 370 µL/min/mg, respectively. This molecule also had an inhibition at 10 µM at CYP2D6 [7] of 85.2%. Moreover, the IC50 in series [3] was found to be 1.4 nM. This molecule registered an inhibition at 0.1 µM against CYP2D6 [4] of 54%. Further, on CYP2D6 [6], at 1 µM the inhibition was 82.6%. The concentration giving a half-maximal response (EC50) in series [1] was determined as 190 nM.
Turning to `C[C@@H](N[C@H]1CCCN(c2ccc(C(=O)O)cc2)C1)c1cccc2ccccc12`, in series [3], the IC50 is above 100 nM. The EC50 in series [1] is 1100 nM.
Take `C[C@@H](N[C@H]1CCN(c2ccc(C(=O)O)cc2)C1)c1cccc2ccccc12`: the microsomal CLint was 92 µL/min/mg in series [2] and 97 µL/min/mg in series [5]. This molecule also displayed an inhibition at 10 µM against CYP2D6 [7] of 14.1%. The IC50 in series [3] amounted to 8 nM. Besides, 0.1 µM produced 0% inhibition against CYP2D6 [4]. On CYP2D6 [6], this molecule returned an inhibition at 1 µM of 14.1%.
With `C[C@@H](N[C@H]1CCN(c2cccc(C(F)(F)F)c2)C1)c1cccc2ccccc12`, the microsomal CLint in series [2] was determined as 370 µL/min/mg; in series [5], 171 µL/min/mg. Besides, in series [3], the IC50 was determined as 13.1 nM. The molecule further displayed an inhibition at 0.1 µM on CYP2D6 [4] of 85.1%. Also, the inhibition at 1 µM at CYP2D6 [6] came to 87.5%. In series [1], the EC50 was 450 nM.
`C[C@@H](N[C@@H]1CCN(c2ccc(C(=O)O)cc2)C1)c1cccc2ccccc12`: the EC50 in series [1] came out at 8800 nM.
With `C[C@@H](N[C@H]1CCN(c2ccc(C(=O)NCCO)cc2)C1)c1cccc2ccccc12`, the values for the microsomal CLint in series [2] and in series [5] were 667 µL/min/mg and 197 µL/min/mg, respectively. In addition, the inhibition at 10 µM at CYP2D6 [7] was 30.7%. Besides, the IC50 in series [3] worked out at 0.91 nM. Also, the inhibition at 0.1 µM against CYP2D6 [4] is 4.4%. Besides, the inhibition at 1 µM on CYP2D6 [6] is 3.4%. For the same molecule, the EC50 in series [1] came to 50 nM.
As to `C[C@@H](N[C@H]1CCCN(c2cccc(OC(F)(F)F)c2)C1)c1cccc2ccccc12`, the microsomal CLint in series [2] turned out to be 442 µL/min/mg; in series [5], 225 µL/min/mg. For the same molecule, the inhibition at 10 µM against CYP2D6 [7] worked out at 92.5%. Further, in series [3], the IC50 is 31.8 nM. Also, testing at 0.1 µM on CYP2D6 [4] gave an inhibition of 79%. On CYP2D6 [6], the inhibition at 1 µM came to 86.4%. Besides, the EC50 in series [1] turned out to be 600 nM.
Regarding `C[C@@H](N[C@@H]1CCN(c2ccc(OC(F)(F)F)cc2)C1)c1cccc2ccccc12`, in series [3], the IC50 amounted to 116 nM. For the same molecule, the EC50 in series [1] stood at 230 nM.
Take `C[C@@H](N[C@H]1CCN(c2ccc(-c3nn[nH]n3)cc2)C1)c1cccc2ccccc12`: the microsomal CLint in series [2] worked out at 42 µL/min/mg; in series [5] it was 312 µL/min/mg. At CYP2D6 [7], this molecule gave an inhibition at 10 µM of 75.3%. Further, the IC50 in series [3] came to 0.47 nM. Moreover, the EC50 in series [1] is 17 nM.
As to `C[C@@H](N[C@@H]1CCCN(c2cccc(C(F)(F)F)c2)C1)c1cccc2ccccc12`, the microsomal CLint came out at 610 µL/min/mg in series [2] and 662 µL/min/mg in series [5]. Also, the inhibition at 10 µM on CYP2D6 [7] amounted to 87.6%. Besides, the concentration for half-maximal inhibition (IC50) in series [3] stood at 2.1 nM. In addition, at CYP2D6 [4], 0.1 µM produced 54.8% inhibition. 1 µM produced 78.7% inhibition on CYP2D6 [6]. Further, in series [1], the EC50 came out at 380 nM.
As for `C[C@@H](N[C@H]1CCN(c2cccc(OC(F)(F)F)c2)C1)c1cccc2ccccc12`, the values for the microsomal CLint in series [2] and in series [5] were 176 µL/min/mg and 84 µL/min/mg, respectively. Besides, the IC50 in series [3] amounted to 11.7 nM. This molecule also yielded an inhibition at 0.1 µM against CYP2D6 [4] of 85.9%. At CYP2D6 [6], this molecule yielded an inhibition at 1 µM of 88.4%. Besides, in series [1], the EC50 came out at 600 nM.
`C[C@@H](N[C@@H]1CCN(c2cccc(C(F)(F)F)c2)C1)c1cccc2ccccc12`: the microsomal CLint was found to be 302 µL/min/mg in series [2] and 421 µL/min/mg in series [5]. For the same molecule, the IC50 in series [3] is 9.7 nM. At CYP2D6 [4], this molecule showed an inhibition at 0.1 µM of 3%. In addition, at CYP2D6 [6], the inhibition at 1 µM came to 60%. The EC50 in series [1] was determined as 430 nM.
As to `C[C@@H](N[C@H]1CCN(c2ccc(OC(F)(F)F)cc2)C1)c1cccc2ccccc12`, 10 µM produced 79.8% inhibition against CYP2D6 [7]. The IC50 in series [3] was 7.8 nM. Also, 0.1 µM produced 15.8% inhibition against CYP2D6 [4]. On CYP2D6 [6], this molecule showed an inhibition at 1 µM of 62.5%. The 50% effective concentration (EC50) in series [1] was determined as 120 nM.
